Laboratory results reported in patent US11318137B2, “Quinazoline compounds as modulators of Ras signaling” (VANDERBILT UNIVERSITY, priority 2017, dated 2022).

Biological target: T1, SOS-mediated nucleotide exchange on Ras (Homo sapiens, UniProt Q07889)
T1 sequence (Q07889 1-1333): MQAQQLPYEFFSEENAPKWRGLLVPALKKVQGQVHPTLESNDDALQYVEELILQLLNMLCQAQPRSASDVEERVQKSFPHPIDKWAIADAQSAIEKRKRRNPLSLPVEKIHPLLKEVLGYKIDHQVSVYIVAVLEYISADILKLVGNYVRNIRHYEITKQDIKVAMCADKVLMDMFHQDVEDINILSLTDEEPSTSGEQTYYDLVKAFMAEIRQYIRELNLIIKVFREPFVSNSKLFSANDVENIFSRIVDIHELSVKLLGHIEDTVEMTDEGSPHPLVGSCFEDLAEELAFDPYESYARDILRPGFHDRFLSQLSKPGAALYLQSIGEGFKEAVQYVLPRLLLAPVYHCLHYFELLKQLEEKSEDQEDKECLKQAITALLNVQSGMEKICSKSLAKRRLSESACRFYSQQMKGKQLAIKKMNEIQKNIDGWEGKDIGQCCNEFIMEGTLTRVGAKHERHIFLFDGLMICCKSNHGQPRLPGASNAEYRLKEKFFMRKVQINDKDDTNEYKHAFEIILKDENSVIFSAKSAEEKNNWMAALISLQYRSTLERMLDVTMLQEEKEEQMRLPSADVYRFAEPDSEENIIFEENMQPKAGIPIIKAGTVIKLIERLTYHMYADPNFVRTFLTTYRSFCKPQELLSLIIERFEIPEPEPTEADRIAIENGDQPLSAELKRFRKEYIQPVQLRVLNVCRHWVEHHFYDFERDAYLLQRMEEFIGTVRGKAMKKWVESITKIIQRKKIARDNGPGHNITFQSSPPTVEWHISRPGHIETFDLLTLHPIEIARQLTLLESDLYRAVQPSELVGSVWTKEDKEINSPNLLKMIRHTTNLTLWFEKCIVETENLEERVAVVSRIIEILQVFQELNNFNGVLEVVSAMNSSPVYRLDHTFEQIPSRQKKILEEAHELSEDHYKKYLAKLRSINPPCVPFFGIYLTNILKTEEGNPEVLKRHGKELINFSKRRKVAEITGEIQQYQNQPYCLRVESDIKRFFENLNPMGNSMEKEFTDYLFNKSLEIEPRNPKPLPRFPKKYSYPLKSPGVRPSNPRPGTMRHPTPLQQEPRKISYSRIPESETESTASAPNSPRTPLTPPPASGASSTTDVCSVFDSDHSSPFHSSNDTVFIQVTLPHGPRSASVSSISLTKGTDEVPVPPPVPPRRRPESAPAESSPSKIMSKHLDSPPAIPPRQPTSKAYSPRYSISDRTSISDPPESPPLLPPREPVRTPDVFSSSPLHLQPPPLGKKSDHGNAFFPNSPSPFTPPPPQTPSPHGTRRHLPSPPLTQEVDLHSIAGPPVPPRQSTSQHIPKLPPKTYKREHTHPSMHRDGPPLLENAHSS
Test: SOS-mediated nucleotide exchange on Ras (BODIPY-GDP fluorescence)
Format: biochemical
Settings: Ras loaded with BODIPY-GDP, GTP and SOS added; EC50 from derived exchange rates
Experimental: A. SOS-Mediated Nucleotide Exchange on Ras
Compounds of the present invention were tested for their ability to modify the rate at which Ras exchanges a labeled nucleotide guanosine diphosphate (GDP) analog for guanosine triphosphate (GTP). Briefly, test compounds, then GTP and the Ras GEF SOS (Son of Sevenless) are added to a buffered solution containing Ras protein loaded with BODIPY-GDP. Changes in fluorescence indicating exchange of the labeled GDP for GTP are monitored over time. Raw fluorescence data was fit to a single exponential decay function and derived rates were plotted as mean values. EC50 values were calculated by plotting mean derived rates as a function of compound concentration and fit using a four-parameter dose-response curve. Full assay details are disclosed in: Burns, M. C.; Sun, Q.; Daniels, R. N.; Camper, D. V.; Kennedy, J. P.; Phan, J.; Olejniczak, E. O.; Lee, T.; Waterson, A. G.; Rossanese, O. W.; Fesik, S. W. “Approach for targeting Ras with small molecules that activate SOS-mediated nucleotide exchange” Proc. Natl. Acad. Sci. 2014; 11(9): 3401-3406. PMCID: PMC3948241.

| Compound | EC50 |
| --- | --- |
| C[C@@H](Nc1nc(Nc2ccc(F)c(Cl)c2)nc2c(C3CNC3)cccc12)C1CC1 [Example 61, (R)-8-(azetidin-3-yl)-N^2-(3-chloro-4-fluorophenyl)-N^4-(1-cyclopropylethyl)quinazoline-2,4-diamine] | 1 to 5 µM |
| Cc1cccc(CNc2nc(N[C@H](C)C3CC3)c3ccccc3n2)c1F [Example 26, (R)—N^4-(1-cyclopropylethyl)-N^2-(2-fluoro-3-methylbenzyl)quinazoline-2,4-diamine] | 1 to 5 µM |
| C[C@@H](Nc1nc(NCc2cccc(Cl)c2F)nc2c(C3=CCNCC3)cccc12)C(C)(C)C [Example 129, (R)—N^2-(3-chloro-2-fluorobenzyl)-N^4-(3,3-dimethylbutan-2-yl)-8-(1,2,3,6-tetrahydropyridin-4-yl)quinazoline-2,4-diamine] | 5 to 30 µM |
| C[C@@H](Nc1nc(Nc2cc(F)cc(F)c2)nc2ccccc12)C(C)(C)C [Example 41, (R)—N^2-(3,5-difluorophenyl)-N^4-(3,3-dimethylbutan-2-yl)quinazoline-2,4-diamine] | 1 to 5 µM |
| c1ccc2c(NCC3CC3)nc(NCC3CCCO3)nc2c1 (stereo not drawn) [Example 18, N^4-(cyclopropylmethyl)-N^2-((THF-2-yl)methyl)quinazoline-2,4-diamine] | > 30 µM |
| C[C@@H](Nc1nc(NCc2cccc(C(F)(F)F)c2)nc2ccccc12)C1CC1 [Example 28, (R)—N^4-(1-cyclopropylethyl)-N^2-(3-(trifluoromethyl)benzyl)quinazoline-2,4-diamine] | 5 to 30 µM |
| C[C@@H](Nc1nc(NCc2cccc(Cl)c2F)nc2ccccc12)C1CC1 [Example 25, (R)—N^2-(3-chloro-2-fluorobenzyl)-N^4-(1-cyclopropylethyl)quinazoline-2,4-diamine] | 1 to 5 µM |
| c1coc(CNc2nc(Nc3ccc4c(c3)CCC4)nc3ccccc23)c1 [Example 10, N^2-(2,3-dihydro-1H-inden-5-yl)-N^4-(furan-2-ylmethyl)quinazoline-2,4-diamine] | 5 to 30 µM |
| C[C@@H](Nc1nc(NCC2CCCCC2)nc2c(CN)cccc12)c1cccs1 [Example 96, (R)-8-(aminomethyl)-N^2-(cyclohexylmethyl)-N^4-(1-(thiophen-2-yl)ethyl)quinazoline-2,4-diamine] | 1 to 5 µM |
| CC(C)[C@@H](C)Nc1nc(Nc2cc(F)cc(F)c2)nc2ccccc12 [Example 20, (R)—N^2-(3,5-difluorophenyl)-N^4-(3-methylbutan-2-yl)quinazoline-2,4-diamine] | 5 to 30 µM |
| CCC(CC)CNc1nc(Nc2ccc(F)c(Cl)c2)nc2c(C#N)cccc12 [Example 99, 2-((3-chloro-4-fluorophenyl)amino)-4-((2-ethylbutyl)amino)quinazoline-8-carbonitrile] | 1 to 5 µM |
| Cc1cc(F)cc(Nc2nc(N[C@H](C)C(C)(C)C)c3cccc(C4=CCNCC4)c3n2)c1 [Example 80, (R)—N^4-(3,3-dimethylbutan-2-yl)-N^2-(3-fluoro-5-methylphenyl)-8-(1,2,3,6-tetrahydropyridin-4-yl)quinazoline-2,4-diamine] | 1 to 5 µM |
| Cc1cc(F)cc(Nc2nc(N[C@H](C)C(C)(C)C)c3cccc(CCN)c3n2)c1 [Example 83, (R)-8-(2-aminoethyl)-N^4-(3,3-dimethylbutan-2-yl)-N^2-(3-fluoro-5-methylphenyl)quinazoline-2,4-diamine] | 1 to 5 µM |
| CCC(CC)CNc1nc(Nc2ccc(F)c(Cl)c2)nc2ccccc12 [Example 31, N^2-(3-chloro-4-fluorophenyl)-N^4-(2-ethylbutyl)quinazoline-2,4-diamine] | 1 to 5 µM |
| C[C@@H](Nc1nc(Nc2ccc(F)c(Cl)c2)nc2c(Br)cccc12)C1CC1 [Example 46, (R)-8-bromo-N^2-(3-chloro-4-fluorophenyl)-N-(1-cyclopropylethyl)quinazoline-2,4-diamine] | > 30 µM |
| C[C@@H](Nc1nc(NCc2ccccc2F)nc2ccccc12)C1CC1 [Example 29, (R)—N^4-(1-cyclopropylethyl)-N^2-(2-fluorobenzyl)quinazoline-2,4-diamine] | 5 to 30 µM |
| C[C@@H](Nc1nc(Nc2cc(F)c(F)c(F)c2)nc2ccccc12)C1CC1 [Example 6, (R)—N^4-(1-cyclopropylethyl)-N^2-(3,4,5-trifluorophenyl)quinazoline-2,4-diamine] | 5 to 30 µM |
| C[C@@H](Nc1nc(Nc2ccc(F)c(Cl)c2)nc2ccccc12)C1CCCC1 [Example 43, (R)—N^2-(3-chloro-4-fluorophenyl)-N^4-(1-cyclopentylethyl)quinazoline-2,4-diamine] | 1 to 5 µM |
| c1ccc(CNc2nc(Nc3ccccc3)nc3ccccc23)cc1 [Example 33, N^4-benzyl-N^2-phenylquinazoline-2,4-diamine] | 5 to 30 µM |
| C[C@@H](Nc1nc(Nc2ccc(F)c(Cl)c2)nc2c(C3=CCNCC3)cccc12)C(C)(C)C [Example 79, (R)—N^2-(3-chloro-4-fluorophenyl)-N^4-(3,3-dimethylbutan-2-yl)-8-(1,2,3,6-tetrahydropyridin-4-yl)quinazoline-2,4-diamine] | 5 to 30 µM |
| c1coc(CNc2nc(Nc3ccc4[nH]nnc4c3)nc3ccccc23)c1 [Example 11, N^2-(1H-benzo [d][1,2,3]triazol-5-yl)-N^4-(furan-2-ylmethyl)quinazoline-2,4-diamine] | > 30 µM |
| Cc1ccc(CNc2nc(Nc3ccc(F)c(Cl)c3)nc3ccccc23)o1 [Example 15, N^2-(3-chloro-4-fluorophenyl)-N^4-((5-methylfuran-2-yl)methyl)quinazoline-2,4-diamine] | 5 to 30 µM |
| FC(F)(F)c1cccc(Nc2nc(NCc3ccco3)c3ccccc3n2)c1 [Example 8, N^44-(furan-2-ylmethyl)-N^2-(3-(trifluoromethyl)phenyl)quinazoline-2,4-diamine] | 5 to 30 µM |
| FC(F)(F)Oc1cccc(Nc2nc(NCc3cccs3)c3ccccc3n2)c1 [Example 7, N^4-(thiophen-2-ylmethyl)-N^2-(3-(trifluoromethoxy)phenyl)quinazoline-2,4-diamine] | 5 to 30 µM |
| COc1cccc(CNc2nc(NCc3ccco3)c3ccccc3n2)c1 [Example 12, N^4-(furan-2-ylmethyl)-N^2-(3-methoxybenzyl)quinazoline-2,4-diamine] | 5 to 30 µM |
| C[C@@H](Nc1nc(Nc2ccc(F)c(Cl)c2F)nc2ccccc12)C1CC1 [Example 30] | 5 to 30 µM |
| c1ccc2c(NCC3CC3)nc(NCC3CCC3)nc2c1 [Example 17, N^2-(cyclobutylmethyl)-N^4-(cyclopropylmethyl)quinazoline-2,4-diamine] | 5 to 30 µM |
| Fc1ccc(Nc2nc(N[C@@H](C3CC3)C(F)(F)F)c3ccccc3n2)cc1Cl [Example 45, (S)—N^2-(3-chloro-4-fluorophenyl)-N^4-(1-cyclopropyl-2,2,2-trifluoroethyl)quinazoline-2,4-diamine] | > 30 µM |
| C[C@@H](Nc1nc(Nc2ccc(F)c(Cl)c2)nc2c(C3=CCNCC3)cccc12)c1cccs1 [Example 88, (R)—N^2-(3-chloro-4-fluorophenyl)-8-(1,2,3,6-tetrahydropyridin-4-yl)-N^4-(1-(thiophen-2-yl)ethyl)quinazoline-2,4-diamine] | 1 to 5 µM |
| CCC(C)CNc1nc(Nc2ccc(F)c(Cl)c2)nc2ccccc12 (stereo not drawn) [Example 16, N^2-(3-chloro-4-fluorophenyl)-N^4-(2-methylbutyl)quinazoline-2,4-diamine] | 5 to 30 µM |
